This experiment relates to CD8F1 mice, subcutaneous mammary adenocarcinoma, T/C%. As to the kind of experiment: NCI In Vivo Anticancer Drug Screen. Data for tumor model Mammary Adenocarcinoma CD8F1 (subcutaneous) in CD8F1. To be noted: higher = larger tumour. On the procedure: The antitumor activity of compounds was measured in mice bearing transplantable tumors. Survival or tumor size were measured and the results are expressed as the measurement made in the treated group (T) divided by the measurement made in the vehicle treated control group (C). The tumor model used in this assay is Mammary Adenocarcinoma CD8F1 (subcutaneous) in CD8F1

Setting [1] is: endpoint: median tumor weight (est.), dose: 12.5 mg/kg/injection, schedule: Q07DX005 (ip), vehicle: saline with Tween-80.
The mark [2] stands for this setting: endpoint: median tumor weight (est.), dose: 100.0 mg/kg/injection, schedule: Q07DX005 (ip), vehicle: saline with Tween-80.
[3] abbreviates: endpoint: median tumor weight (est.), dose: 200.0 mg/kg/injection, schedule: Q07DX005 (ip), vehicle: saline with Tween-80.
Where [4] appears, read: endpoint: median tumor weight (est.), dose: 50.0 mg/kg/injection, schedule: Q07DX005 (ip), vehicle: saline with Tween-80.

Structures are written as SMILES. “And” between values parts separate entries of the source, which are not always exact repeats. Equal entries are not always repeated. Results filed as inconclusive are left out.

The source of these data is PubChem BioAssay AID220 (DTP/NCI, 2004).

`C=C/C(C)=C/[C@H](C)C(=O)C[C@H](O)CC1CC(=O)NC(=O)C1`: the T/C was 41 % of control (endpoint: median tumor weight (est.), dose: 6.25 mg/kg/injection, schedule: Q07DX005 (ip), vehicle: saline with Tween-80); 62 % of control under setting [1]; 157 % of control under setting [2]; 50 % of control under setting [3].
For `CC/C(=C(/CC)c1ccc(O)cc1)c1ccc(O)cc1`, the T/C is 70 % of control (endpoint: median tumor weight (est.), dose: 12.5 mg/kg/injection, schedule: Q07DX005 (ip), vehicle: water); 66 % of control (endpoint: median tumor weight (est.), dose: 25.0 mg/kg/injection, schedule: Q07DX005 (ip), vehicle: water); 111 % of control (endpoint: median tumor weight (est.), dose: 50.0 mg/kg/injection, schedule: Q07DX005 (ip), vehicle: water); 101 % of control (endpoint: median tumor weight (est.), dose: 100.0 mg/kg/injection, schedule: Q07DX005 (ip), vehicle: water); 49 % of control (endpoint: median tumor weight (est.), dose: 200.0 mg/kg/injection, schedule: Q07DX005 (ip), vehicle: water).
For `O=c1cc[nH]c(=O)o1`, the T/C is 75 % of control (endpoint: mean tumor weight, dose: 5.0 mg/kg/injection, schedule: Q04DX008 (ip), vehicle: water); 109 % of control (endpoint: mean tumor weight, dose: 10.0 mg/kg/injection, schedule: Q04DX008 (ip), vehicle: water); 70 % of control (endpoint: mean tumor weight, dose: 20.0 mg/kg/injection, schedule: Q04DX008 (ip), vehicle: water); 112 % of control (endpoint: mean tumor weight, dose: 25.0 mg/kg/injection, schedule: Q07DX005 (ip), vehicle: saline); 152 % of control (endpoint: mean tumor weight, dose: 25.0 mg/kg/injection, schedule: Q07DX007 (ip), vehicle: saline); 54 % of control (endpoint: mean tumor weight, dose: 50.0 mg/kg/injection, schedule: Q07DX005 (ip), vehicle: saline). Further, the T/C (endpoint: mean tumor weight, dose: 50.0 mg/kg/injection, schedule: Q07DX007 (ip), vehicle: saline) was 87 % of control; the T/C (endpoint: mean tumor weight, dose: 75.0 mg/kg/injection, schedule: Q07DX007 (ip), vehicle: saline) is 46 % of control; the T/C (endpoint: median tumor weight (est.), dose: 12.2 mg/kg/injection, schedule: Q07DX005 (ip), vehicle: saline) was 62 % of control; the T/C (endpoint: median tumor weight (est.), dose: 28.0 mg/kg/injection, schedule: Q07DX005 (ip), vehicle: saline) is 83 % of control; the T/C (endpoint: median tumor weight (est.), dose: 42.0 mg/kg/injection, schedule: Q07DX005 (ip), vehicle: saline) was 118 % of control; the T/C (endpoint: median tumor weight (est.), dose: 63.0 mg/kg/injection, schedule: Q07DX005 (ip), vehicle: saline) was 67 % of control.
For the compound `Nc1ncn(C2CC(O)C(CO)O2)c(=O)n1` (configuration not stated), the T/C is 37 % of control (endpoint: median tumor weight (est.), dose: 0.37 mg/kg/injection, schedule: Q07DX005 (ip), vehicle: saline); 25 % of control (endpoint: median tumor weight (est.), dose: 0.75 mg/kg/injection, schedule: Q07DX005 (ip), vehicle: saline); 9 % of control (endpoint: median tumor weight (est.), dose: 1.5 mg/kg/injection, schedule: Q07DX005 (ip), vehicle: saline); 10 % of control (endpoint: median tumor weight (est.), dose: 3.0 mg/kg/injection, schedule: Q07DX005 (ip), vehicle: saline).
As for `CC1=C(O)C(=O)[C@@H]2O[C@@H]2C1=O`, the T/C runs as follows: (endpoint: median tumor weight change, dose: 7.8 mg/kg/injection, schedule: Q01DX001 (ip), vehicle: saline) 54 % of control; (endpoint: median tumor weight change, dose: 15.6 mg/kg/injection, schedule: Q01DX001 (ip), vehicle: saline) 81 % of control; (endpoint: median tumor weight change, dose: 31.25 mg/kg/injection, schedule: Q01DX001 (ip), vehicle: saline) 48 % of control.
Turning to `OCC1OC(n2cnc3c2nnn2ccnc32)C(O)C1O` (configuration not stated), the T/C is, setting by setting: (endpoint: mean tumor weight, dose: 37.5 mg/kg/injection, schedule: Q07DX005 (ip), vehicle: saline) 93 % of control and 94 % of control; (endpoint: mean tumor weight, dose: 75.0 mg/kg/injection, schedule: Q07DX005 (ip), vehicle: saline) 202 % of control and 91 % of control; (endpoint: mean tumor weight, dose: 150.0 mg/kg/injection, schedule: Q07DX005 (ip), vehicle: saline) 103 % of control and 118 % of control.
In the case of `CC(C)=CCNc1ncnc2c1ncn2C1OC(CO)C(O)C1O` (configuration not stated), the T/C reads like this: under setting [1], 78 % of control; (endpoint: median tumor weight (est.), dose: 25.0 mg/kg/injection, schedule: Q07DX005 (ip), vehicle: saline with Tween-80) 84 % of control; under setting [4], 113 % of control; under setting [2], 85 % of control; under setting [3], 82 % of control.
As for `COc1cc2c(ccc3c4cc(OC)c(OC)cc4c[n+](C)c23)cc1O`, the T/C by setting is: (endpoint: median tumor weight change, dose: 250.0 mg/kg/injection, schedule: Q01DX001 (ip), vehicle: saline) 190 % of control; (endpoint: median tumor weight change, dose: 1000.0 mg/kg/injection, schedule: Q01DX001 (ip), vehicle: saline) 89 % of control; (endpoint: median tumor weight change, dose: 2000.0 mg/kg/injection, schedule: Q01DX001 (ip), vehicle: saline) 121 % of control.
For the compound `Cc1ccc(C(=O)[O][Hg][CH2]C2COC([CH2][Hg][O]C(=O)c3ccc(C)cc3)CO2)cc1` (configuration not stated), the T/C (endpoint: median tumor weight (est.), dose: 6.25 mg/kg/injection, schedule: Q07DX005 (ip), vehicle: Klucel (hydroxypropylcellulose) (HPC)) was 60 % of control; the T/C (endpoint: median tumor weight (est.), dose: 12.5 mg/kg/injection, schedule: Q07DX005 (ip), vehicle: Klucel (hydroxypropylcellulose) (HPC)) is 72 % of control; the T/C (endpoint: median tumor weight (est.), dose: 25.0 mg/kg/injection, schedule: Q07DX005 (ip), vehicle: Klucel (hydroxypropylcellulose) (HPC)) was 117 % of control; the T/C (endpoint: median tumor weight (est.), dose: 50.0 mg/kg/injection, schedule: Q07DX005 (ip), vehicle: Klucel (hydroxypropylcellulose) (HPC)) was 57 % of control; the T/C (endpoint: median tumor weight (est.), dose: 100.0 mg/kg/injection, schedule: Q07DX005 (ip), vehicle: Klucel (hydroxypropylcellulose) (HPC)) is 162 % of control.
As to `COc1cc([C@@H]2c3cc4c(cc3[C@@H](OC3OC5COC(C)OC5C(O)C3O)[C@H]3COC(=O)[C@H]23)OCO4)cc(OC)c1O` (some centres not stated), the T/C by setting is: (endpoint: median tumor weight (est.), dose: 2.0 mg/kg/injection, schedule: Q07DX005 (ip), vehicle: saline) 74 % of control; (endpoint: median tumor weight (est.), dose: 4.0 mg/kg/injection, schedule: Q07DX005 (ip), vehicle: saline) 110 % of control; (endpoint: median tumor weight (est.), dose: 8.0 mg/kg/injection, schedule: Q07DX005 (ip), vehicle: saline) 51 % of control; (endpoint: median tumor weight (est.), dose: 16.0 mg/kg/injection, schedule: Q07DX005 (ip), vehicle: clinical formulation) 38 % of control; (endpoint: median tumor weight (est.), dose: 16.0 mg/kg/injection, schedule: Q07DX005 (ip), vehicle: saline) 25 % of control and 48 % of control; (endpoint: median tumor weight (est.), dose: 32.0 mg/kg/injection, schedule: Q07DX005 (ip), vehicle: clinical formulation) 11 % of control. For the same compound, the T/C (endpoint: median tumor weight (est.), dose: 32.0 mg/kg/injection, schedule: Q07DX005 (ip), vehicle: saline) is 8 % of control and 9 % of control.
Regarding `CCCCCCCCCCC(OC(C)=O)C1CCC(C2CCC(C(O)CCCCCCCCCCCCC3C=C(C)OC3=O)O2)O1` (configuration not stated), the T/C is 111 % of control (endpoint: median tumor weight change, dose: 1.25 mg/kg/injection, schedule: Q01DX001 (ip), vehicle: water); 76 % of control (endpoint: median tumor weight change, dose: 10.0 mg/kg/injection, schedule: Q01DX001 (ip), vehicle: other); 164 % of control (endpoint: median tumor weight change, dose: 10.0 mg/kg/injection, schedule: Q01DX001 (ip), vehicle: water); 41 % of control (endpoint: median tumor weight change, dose: 20.0 mg/kg/injection, schedule: Q01DX001 (ip), vehicle: other); 38 % of control (endpoint: median tumor weight change, dose: 40.0 mg/kg/injection, schedule: Q01DX001 (ip), vehicle: other); 38 % of control (endpoint: median tumor weight change, dose: 80.0 mg/kg/injection, schedule: Q01DX001 (ip), vehicle: other).
As for `Cc1ccc(S(=O)(=O)NC(=O)OC23COCN2COC3)cc1`, the T/C (endpoint: median tumor weight change, dose: 125.0 mg/kg/injection, schedule: Q01DX001 (ip), vehicle: water) was 170 % of control; the T/C (endpoint: median tumor weight change, dose: 250.0 mg/kg/injection, schedule: Q01DX001 (ip), vehicle: saline with Tween-80) is 111 % of control; the T/C (endpoint: median tumor weight change, dose: 500.0 mg/kg/injection, schedule: Q01DX001 (ip), vehicle: saline with Tween-80) is 90 % of control; the T/C (endpoint: median tumor weight change, dose: 500.0 mg/kg/injection, schedule: Q01DX001 (ip), vehicle: water) was 162 % of control; the T/C (endpoint: median tumor weight change, dose: 1000.0 mg/kg/injection, schedule: Q01DX001 (ip), vehicle: water) is 222 % of control; the T/C (endpoint: median tumor weight change, dose: 2000.0 mg/kg/injection, schedule: Q01DX001 (ip), vehicle: saline with Tween-80) is 74 % of control. In addition, the T/C (endpoint: median tumor weight change, dose: 2000.0 mg/kg/injection, schedule: Q01DX001 (ip), vehicle: water) is 184 % of control.
Consider `Nc1nc(-c2cccc3ccccc23)cc2ccccc12`, for which the T/C is 53 % of control under setting [4], 81 % of control under setting [2] and 37 % of control under setting [3].
